In series [1] the test system is PDE4. The following applies: cited from earlier work.
The subject of series [2] is T1, PDE4.
T1 construct: other: Saldou et al., 1998; Such an enzyme preparation may be obtained from cells transfected with and expressing the PDE4 enzyme chosen
The following applies: Saldou et al., 1998; read-out: IC50 against PDE4; cited from earlier work.

The conditions of series [3]: human, in vivo; cited from earlier work.
Series [4] has as its system PDE3. Kind of series: PDE3 inhibition (literature values, PDE3/PDE4 specificity). Type of series: biochemical. The following applies: measure of specificity. The source says:
These compounds are termed specific to PDE4, since they inhibit other PDEs either weakly or not at all. The inverse ratio between IC50 of a compound to PDE4s versus its inhibition of other cAMP-degrading PDEs, such as PDE3s is often used as a measure of specificity.

In series [5] the target is T2, HSPDE4A1-EGFP (Homo sapiens, UniProt P27815).
T2 construct: the ca. 1.95 kb coding region of HSPDE4A1 (GenBank Acc.no. U97584) is amplified; expressed in transfected cells
T2 sequence (P27815 1-647 isoform P27815-4): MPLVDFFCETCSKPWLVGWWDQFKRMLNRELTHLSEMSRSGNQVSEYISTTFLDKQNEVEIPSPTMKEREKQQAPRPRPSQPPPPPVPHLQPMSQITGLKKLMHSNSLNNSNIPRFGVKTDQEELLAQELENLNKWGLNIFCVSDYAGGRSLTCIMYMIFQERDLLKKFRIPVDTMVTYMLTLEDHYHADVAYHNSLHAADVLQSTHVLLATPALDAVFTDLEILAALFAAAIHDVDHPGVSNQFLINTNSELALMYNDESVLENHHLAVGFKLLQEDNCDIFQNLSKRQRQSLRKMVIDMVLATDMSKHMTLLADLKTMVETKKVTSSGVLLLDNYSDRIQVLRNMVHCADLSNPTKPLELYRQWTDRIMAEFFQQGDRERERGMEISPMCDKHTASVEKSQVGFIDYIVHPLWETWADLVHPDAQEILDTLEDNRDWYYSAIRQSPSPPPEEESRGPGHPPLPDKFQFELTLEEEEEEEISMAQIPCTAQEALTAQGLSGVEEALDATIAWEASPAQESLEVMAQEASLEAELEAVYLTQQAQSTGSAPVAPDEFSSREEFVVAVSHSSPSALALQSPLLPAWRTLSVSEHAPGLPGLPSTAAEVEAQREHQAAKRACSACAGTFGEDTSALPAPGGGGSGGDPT
Kind of series: Competitive assay: reversal of Rolipram-induced spot dispersal, HSPDE4A1-EGFP CHO cells. It counts as cell-based. The following applies: yes/no.

Series [6] deals with T3, HSPDE4A4-H506N-EGFP (Homo sapiens, UniProt P27815, H506N).
T3 construct: expressed in transfected cells
T3 sequence (P27815 whole entry H506N): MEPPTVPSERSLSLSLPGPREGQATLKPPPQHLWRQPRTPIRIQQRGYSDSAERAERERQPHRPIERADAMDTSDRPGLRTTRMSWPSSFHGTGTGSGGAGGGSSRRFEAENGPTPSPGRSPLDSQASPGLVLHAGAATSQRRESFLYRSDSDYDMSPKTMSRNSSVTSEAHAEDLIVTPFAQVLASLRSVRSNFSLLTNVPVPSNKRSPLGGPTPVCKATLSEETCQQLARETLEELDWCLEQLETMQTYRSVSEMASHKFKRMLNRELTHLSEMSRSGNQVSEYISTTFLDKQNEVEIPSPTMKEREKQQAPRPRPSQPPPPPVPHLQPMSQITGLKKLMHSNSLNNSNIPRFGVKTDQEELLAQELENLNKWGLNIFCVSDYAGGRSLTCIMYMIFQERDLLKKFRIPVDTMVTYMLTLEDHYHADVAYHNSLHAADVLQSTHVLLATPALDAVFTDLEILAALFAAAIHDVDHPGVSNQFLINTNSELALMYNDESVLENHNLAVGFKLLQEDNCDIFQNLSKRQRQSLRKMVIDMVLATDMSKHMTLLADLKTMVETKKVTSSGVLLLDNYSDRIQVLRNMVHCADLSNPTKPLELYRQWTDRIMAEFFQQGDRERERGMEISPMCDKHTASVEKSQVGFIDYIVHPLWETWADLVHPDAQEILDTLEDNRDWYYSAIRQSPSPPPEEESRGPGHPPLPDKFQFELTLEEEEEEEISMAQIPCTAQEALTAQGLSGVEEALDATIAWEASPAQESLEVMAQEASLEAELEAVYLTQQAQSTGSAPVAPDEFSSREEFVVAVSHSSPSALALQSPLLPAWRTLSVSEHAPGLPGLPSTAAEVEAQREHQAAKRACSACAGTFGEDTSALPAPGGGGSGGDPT
Kind of series: Spot formation in CHO cells transfected with HSPDE4A4-H506N-EGFP. It counts as cell-based. The following applies: clonal CHO, 23.5 hours. As for the experimental part: The cells are then fixed with 4% formaldehyde buffer (pH7) for 1 hour, washed with PBS and stained with 1 μM Hoechst 33258 in PBS for 10 minutes at 25° C., then washed twice in PBS. Automated images are collected and analysed for the number of spots per cell as described in Example 2.
Cells are grown in HAM's F12 medium plus 10% FBS plus various concentrations of inhibitors for 23.5 hours. The cells are then fixed with 4% formaldehyde buffer (pH7) for 1 hour, washed with PBS and stained with 1 μM Hoechst 33258 in PBS for 10 minutes at 25° C., then washed twice in PBS. Automated images are collected and analysed for the number of spots per cell as described in Example 2.

Where two headings read alike, the source gives them in different places.

For orientation: IC50 means the midpoint of a concentration-inhibition curve. For orientation: EC50 means the concentration that produces a half-maximal response. With `O=c1c2cccnc2n(-c2cccc([N+](=O)[O-])c2)c(=O)n1Cc1ccncc1` [RS25344], the IC50 is 0.28 nM in series [1] (literature values quoted in Example 5 (Saldou 1998; Ahluwalia 1982; Rubin 1991), read-out: IC50 against PDE4) and 0.28 nM in series [2]. Besides, the “Inhibition of PDE4 catalytic activity” value in series [1] (yes/no) is listed as “yes”. Moreover, the Clinical effect result in series [3] was “anti-”. In addition, the Emesis result in series [3] is “yes”. Moreover, the “(IC50 PDE3)/(IC50 PDE4)” value in series [4] was 1,170,000. In series [5], the “Reversal of Rolipram-induced removal of PDE4A1 spots” value is recorded as “no”. For the same compound, the EC50 in series [6] was found to be 125 nM.

The values above are taken from US20030187056A1, “Live cell procedures to identify to identify compounds modulating intracellular distribution of phosphodiesterase( pde) enzymes” (priority 2000, published 2003).
